Reference: patent EP4385495A1, “NANOSYSTEMS FOR THE ENCAPSULATION OF THERAPEUTIC AGENTS” (National Technical University of Athens, priority 2022, dated 2024)

Assays:
[1] = molecular target: T1, soybean lipoxygenase (LOX) (Glycine max, UniProt P08170); assay: Soybean lipoxygenase inhibition assay in vitro; type: biochemical
T1 sequence (P08170 1-839): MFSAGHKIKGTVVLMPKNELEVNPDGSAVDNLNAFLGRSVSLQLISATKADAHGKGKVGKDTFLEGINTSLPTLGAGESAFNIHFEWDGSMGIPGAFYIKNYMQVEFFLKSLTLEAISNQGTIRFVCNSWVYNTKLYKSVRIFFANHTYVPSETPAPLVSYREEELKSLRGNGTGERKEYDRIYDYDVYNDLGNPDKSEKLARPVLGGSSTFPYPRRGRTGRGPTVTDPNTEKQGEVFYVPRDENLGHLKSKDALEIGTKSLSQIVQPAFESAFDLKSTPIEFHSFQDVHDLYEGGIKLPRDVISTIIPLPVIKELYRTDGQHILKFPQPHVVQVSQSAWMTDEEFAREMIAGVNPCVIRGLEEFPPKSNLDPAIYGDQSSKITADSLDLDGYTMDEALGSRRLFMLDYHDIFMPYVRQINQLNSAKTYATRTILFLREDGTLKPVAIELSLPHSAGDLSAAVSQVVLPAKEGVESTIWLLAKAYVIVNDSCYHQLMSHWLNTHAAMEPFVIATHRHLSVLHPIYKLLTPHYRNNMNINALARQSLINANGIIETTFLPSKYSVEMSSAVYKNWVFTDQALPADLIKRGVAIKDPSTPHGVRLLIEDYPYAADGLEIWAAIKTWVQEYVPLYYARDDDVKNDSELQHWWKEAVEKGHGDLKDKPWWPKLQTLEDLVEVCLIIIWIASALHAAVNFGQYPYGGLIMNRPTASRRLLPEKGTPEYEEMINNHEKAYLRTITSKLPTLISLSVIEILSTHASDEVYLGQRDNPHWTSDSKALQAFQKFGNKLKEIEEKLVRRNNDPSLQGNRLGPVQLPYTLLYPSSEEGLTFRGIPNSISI
Procedure: The soybean lipoxygenase (LOX) test is a representative assay for anti-inflammatory activity since LOX is implicated in the inflammatory cascade. LOXs contain a "non-heme" iron per molecule in the catalytic active site as high-spin Fe^+2 in the native state and high-spin Fe^+3 in the activated state. […] The inhibitory activity of several LOX inhibitors, such as phenolic derivatives, can be attributed to their chelating capacity to Fe^+3. In brief, two reaction mixtures are prepared in UV cuvettes for each sample, the first reaction mixture contains LOX solution (dissolved in Tris buffer, pH 9) and the sample under examination, whereas the second reaction mixture also contained LLA solution (dissolved in 0.9% NaCl). Both reaction mixtures were measured at room temperature at 234 nm. The inhibition of LOX was measured in the presence of the same level of DMSO, which served as control.
Table 2: Anti-inflammatory potential of the samples expressed as % inhibition of LOX

MMP-13 = MMP-13 ELISA in secretions of TNFα-stimulated chondrocytes; type: cell-based, human; settings: for Mean % relative MMP-13 secretion (72h): co-treatment with TNFα, normalized to negative control (TNFα only)
Description: Matrix Mettaloproteinase 13 (MMP-13) is the main culprit in the destabilization of the anabolic/catabolic balance in the articular joint. MMP-13 […] balance towards catabolism and collagen II degradation which aggravates the OA pathology and is an enzyme that is secreted by chondrocytes in the extracellular environment. […] A decrease in MMP-13 levels is desirable, correlates with less degradation of cartilage and is widely used in the OA research field as a histopathological marker to evaluate amelioration of OA cellular pathology in the joint following an intervention. Finding Nanoparticles that can reduce MMP-13 levels in the assay is a promising lead for a favorable effect in a pre-clinical animal model in vivo. […] The results in Table 6 are the mean relative values from at least 3 independent repetitions of the experiments. Table 6. MMP-13 ELISA results as normalized values relative to negative control (NC, TNFα-stimulated cells without nanosystems) from 3 independent experiments. The standard deviations are omitted for simplicity. Samples' coding: S1=Naringin pure compound, S2=Naringin encapsulated in PLA nanoparticles [PLA[NAR]], S3=Naringin encapsulated in PLA nanoparticles coated with chitosan CS[PLA[NAR]], and S4=Blank PLA nanoparticles coated with chitosan, CS[PLA[---]].

[2] = Body weight in collagenase-induced osteoarthritis rat model; type: in vivo, Wistar rats
Procedure: In order to understand the anti-inflammatory and antioxidant potential of the nanoparticles of the invention in vivo an experimental animal model of osteoarthritis (OA) was established. The OA lesions were caused by matrix degradation of articular cartilage using enzymatic means, such as collagenase type-II. Following the induction of osteoarthritis, the studied nanoparticles were administered for 8 weeks in which period the morphological and behavioral changes were measured and finally histological analysis of the articular cartilage samples concluded the in vivo study.
(§1) Healthy adult male Wistar rats (150-200 g) were used for the study, with water and food ad libitum, at a constant temperature of 22°C and controlled lighting (12 h light/12 h dark cycle).
(§2) As far as the dispersion procedure of the injectables is concerned, all the natural compounds were dissolved in saline solution, whereas the studied nanoparticles were mechanically grinded in a mortar and pestle set with saline solution and Tween 20 (2% w/v) and heated at 36 °C before each treatment. There were six treatments administered every 10 days. At the end of the experiment rats were euthanized and both knees were collected for histological analysis.
(§3) Rats were anesthetized with chloral hydrate. The right knee joints of Group I were injected with normal saline solution and served as a control. Animals from the groups II, III, IV, V, VI, VII were injected with collagenase type II (Clostridium histolyticum). Collagenase (125 collagen digestion unit/mg) was dissolved in saline, and it was injected intra-articularly into the right knee joint twice on days 1 and 4 of the experiment (Al-Saffar, F., H. Ganabadi and S. Fakurazi. Collagenase and sodium iodoacetate-induced experimental osteoarthritis model in Sprague dawley rats. Asian J. Sci. Res. 2: 1-13, 2009). The left knees of all animals were left untreated as a control.
Changes in body weight and knee diameter were measured on the 1st, 4th,11th,21st,31st,41st,51st, 61st, 71st day before every injection. Knee diameter was measured using a digital caliper. […] A change in body weight is also measured as one of the parameters to assess the course of the disease in the OA animal models.

[3] = tested on: experimental animal model of osteoarthritis (OA); assay: Grid-walking test in osteoarthritis rat model; type: in vivo, Wistar rats
Procedure: as §1, §2, §3
(§4) For the evaluation of the effectiveness and time of release of the encapsulated compounds, all animals were subjected to a series of behavioral testing in addition to the measurements of body weight and knees diameter change. The experimental protocol of the present study followed the combination of three different behavioral tests, which are von Frey mechanical allodynia test, grid walking and slope walking test. Behavioral tests are performed in three phases, at the beginning before the start of treatment, in the middle of treatment (approximately 35-40 days) and at the end (after the 70th day).
In this test the rats were allowed to explore freely for 4 minutes in a wire grid and when one of the limbs fell below the grid surface during free walking, the observer counted the number of foot-fault errors (footslips) (Starkey, M. L., Barritt, A. W., Yip, P. K., Davies, M., Hamers, F. P. T., McMahon, S. B., & Bradbury, E. J. (2005). Assessing behavioural function following a pyramidotomy lesion of the corticospinal tract in adult mice. Experimental Neurology, 195(2), 524-539. doi:10.1016/j.expneurol.2005.0).

[4] = tested on: experimental animal model of osteoarthritis (OA); assay: Slope walking test in osteoarthritis rat model; type: in vivo, Wistar rats
Procedure: as §1
As far as the dispersion procedure of the injectables is concerned, all the natural compounds were dissolved in saline solution, whereas the studied nanoparticles were mechanically grinded in a mortar and pestle set with saline solution and Tween 20 (2% w/v) and heated at 36 °C before each treatment. There were six treatments administered every 10 days.
as §3, §4
Walking on an inclined plane was used for the clinical assessment of motor function in rats after induction of OA. The method consists of placing the animal on an inclined plane and then measuring the time (seconds) needed for the animals to go up the walking tray.

[5] = 40 days (half of experimental protocol)
[6] = 70 days (end of experimental protocol)

With `C[C@@H]1O[C@@H](O[C@H]2[C@H](Oc3cc(O)c4c(c3)O[C@H](c3ccc(O)cc3)CC4=O)O[C@H](CO)[C@@H](O)[C@@H]2O)[C@H](O)[C@H](O)[C@H]1O` [S1 [NAR], Naringin] the inhibition at 25 µM ([1]; 25 µM, 24h) was 7.1%, the inhibition at 50 µM ([1]; 50 µM, 24h) was 21.2% and the inhibition at 100 µM ([1]; 100 µM, 24h) was 44.6%. The “LOX inhibition at 48 and 72 h compared with 24 h (in words)” value ([1]; 48 and 72 h) was “no significant difference”, the “Mean % relative MMP-13 secretion (72h)” value (MMP-13; 10 µM Naringin (free or encapsulated)) was 110,57% and the “Mean % relative MMP-13 secretion (72h)” value (MMP-13; 50 µM Naringin (free or encapsulated)) was 113.28%. The “Mean % relative MMP-13 secretion (72h)” value (MMP-13; 200 µM) was 102,77%, the “decrease in MMP-13 (in words)” value (MMP-13; TNFα-stimulated chondrocytes) was “did not give a detectable decrease” and the “Body Weight (BW)” value ([2]; 1st injection CO/saline (before treatment)) was 247 g. For the same compound, the “Body Weight (BW)” value ([2]; 1st treatment, 10 mg/kg (S1, ibuprofen i.p.; nanoparticles i.a.), every 10 days) was 239 g, the “Body Weight (BW)” value ([2]; 2nd injection CO/saline (before treatment)) was 236 g and the “Body Weight (BW)” value ([2]; 2nd treatment, 10 mg/kg (S1, ibuprofen i.p.; nanoparticles i.a.)) was 247 g. The “Body Weight (BW)” value ([2]; 3rd treatment, 10 mg/kg (S1, ibuprofen i.p.; nanoparticles i.a.)) was 276 g, the “Body Weight (BW)” value ([2]; 4th treatment, 10 mg/kg (S1, ibuprofen i.p.; nanoparticles i.a.)) was 294 g and the “Body Weight (BW)” value ([2]; 5th treatment, 10 mg/kg (S1, ibuprofen i.p.; nanoparticles i.a.)) was 317 g. For the same compound, the “Body Weight (BW)” value ([2]; 6th treatment, 10 mg/kg (S1, ibuprofen i.p.; nanoparticles i.a.)) was 326 g, the “% Changes in Body Weight (BW)” value ([2]; 11 days (before treatment)) was -3,2% and the “% Changes in Body Weight (BW)” value [2, 5] was 19,0%. The “% Changes in Body Weight (BW)” value [2, 6] was 34,8%, the “Body Weight (BW)” value ([2]; final, 10 mg/kg (S1, ibuprofen i.p.; nanoparticles i.a.)) was 333 g and the “Foot fault in grid-walk test (4 min)” value ([3]; 11 days left paw) was 3,4. For the same compound, the “Foot fault in grid-walk test (4 min)” value ([3]; 11 days right paw) was 5,6, the “Foot fault in grid-walk test (4 min)” value ([3]; 40 days left paw) was 2 and the “Foot fault in grid-walk test (4 min)” value ([3]; 40 days right paw) was 3. The “Foot fault in grid-walk test (4 min)” value ([3]; 70 days left paw) was 2,8, the “Foot fault in grid-walk test (4 min)” value ([3]; 70 days right paw) was 2,4 and the “Slope Walking” value ([4]; 11 days (before treatment)) was 10,3 sec. The “Slope Walking” value [4, 5] was 8,9 sec and the “Slope Walking” value [4, 6] was 8,6 sec.
